Tests used:
Test in all cases: relative viability (nuclei count vs DMSO), 5 days (fraction); higher = more cells survive
Sulindac + Phenformin = compound: CC1=C(CC(=O)O)c2cc(F)ccc2/C1=C\c1ccc([S+](C)[O-])cc1 [Sulindac] + N=C(N)NC(=N)NCCc1ccccc1 [Phenformin] (partner 250 µM)
How it was run: (§1)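 Nuclei were stained with Hoechst during a one-step fixation (final 0.05% Triton X-100, 1% formaldehyde, 1 ug/ml Hoechst) carried out 5 days after dosing, then counted on 4× images. The cells, lung cancer lines in 1536-well plates, had been dosed by pin tool the day after seeding with one drug alone or a fixed anchor-drug dose plus five library-drug doses (not always all listed) in √10 steps. Relative viability is the nuclei count in treated wells divided by that in vehicle wells, and each value is the median of duplicate plates.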

[1] = compound: CN[C@@H]1C[C@H]2O[C@@](C)([C@@H]1OC)n1c3ccccc3c3c4c(c5c6ccccc6n2c5c31)C(=O)NC4 [Staurosporine] + CCNC(=O)c1noc(-c2cc(C(C)C)c(O)cc2O)c1-c1ccc(CN2CCOCC2)cc1 [Luminespib] (partner 0.01 µM)
How it was run: as §1

[2] = compound: CN[C@@H]1C[C@H]2O[C@@](C)([C@@H]1OC)n1c3ccccc3c3c4c(c5c6ccccc6n2c5c31)C(=O)NC4 [Staurosporine] + C[C@@H](Oc1cc(-c2cnn(C3CCNCC3)c2)cnc1N)c1c(Cl)ccc(F)c1Cl [Crizotinib] (partner 1 µM)
How it was run: as §1

[3] = compound: O=c1[nH]cc(F)c(=O)[nH]1 [5-Fluorouracil] + CS(=O)(=O)CCNCc1ccc(-c2ccc3ncnc(Nc4ccc(OCc5cccc(F)c5)c(Cl)c4)c3c2)o1 [Lapatinib] (partner 2 µM)
How it was run: as §1

Cell Line | relative viability (Sulindac + Phenformin; first compound 0.08 µM) | relative viability (Sulindac + Phenformin; first compound 0.253 µM) | relative viability (Sulindac + Phenformin; first compound 0.8 µM) | relative viability (Sulindac + Phenformin; first compound 2.53 µM) | relative viability (Sulindac + Phenformin; first compound 8 µM) | relative viability ([1]; first compound 0.005 µM) | relative viability ([1]; first compound 0.05 µM) | relative viability ([1]; first compound 0.1581 µM) | relative viability ([1]; first compound 0.5 µM) | relative viability ([2]; first compound 0.005 µM) | relative viability ([2]; first compound 0.01581 µM) | relative viability ([2]; first compound 0.05 µM) | relative viability ([2]; first compound 0.1581 µM) | relative viability ([2]; first compound 0.5 µM) | relative viability ([3]; first compound 0.02 µM) | relative viability ([3]; first compound 0.2 µM) | relative viability ([3]; first compound 0.6325 µM) | relative viability ([3]; first compound 2 µM) | relative viability ([1]; first compound 0.01581 µM)
201T | 0.478 | 0.435 | 0.314 | 0.451 | 0.486 | 1.03 | 0.693 | 0.349 | 0.334 | 1.03 | 0.994 | 0.962 | 0.847 | 0.724 | 1.05 | 0.964 | 0.479 | 0.376 | 
A549 | 0.109 | 0.154 | 0.95 | 0.232 | 0.244 |  |  |  |  | 0.369 | 0.19 | 0.0867 | 0.0411 | 0.0307 | 1.09 | 0.656 | 0.456 | 0.135 | 
A-427 | 0.332 | 0.324 | 0.248 | 0.334 | 0.354 | 0.712 | 0.231 | 0.159 | 0.149 | 0.841 | 0.582 | 0.236 | 0.126 | 0.122 | 1.02 | 1.07 | 1.07 | 0.792 | 0.463
ABC-1 | 0.23 | 0.214 | 0.209 | 0.255 | 0.226 | 0.261 | 0.147 | 0.156 | 0.0847 | 0.43 | 0.285 | 0.149 | 0.0998 | 0.0958 | 1.33 | 1.23 | 1.24 | 1.13 | 0.274
BEN | 0.284 | 0.276 | 0.227 | 0.218 | 0.275 | 0.397 | 0.383 | 0.152 | 0.129 | 1.22 | 0.754 | 0.473 | 0.379 | 0.266 | 0.658 | 0.628 | 0.615 | 0.602 | 0.256
CAL-12T | 0.662 | 0.615 | 0.418 | 0.529 | 0.681 | 0.0969 | 0.0596 | 0.109 | 0.109 | 0.16 | 0.0981 | 0.0843 | 0.113 | 0.0906 | 0.573 | 0.897 | 0.649 | 0.559 | 0.0675
COR-L23 | 0.506 | 0.487 | 0.339 | 0.51 | 0.549 | 0.262 | 0.083 | 0.0871 | 0.0485 | 0.369 | 0.303 | 0.118 | 0.0765 | 0.0558 | 1.03 | 0.921 | 0.48 | 0.253 | 0.324
COR-L 105 | 0.456 | 0.477 | 0.417 | 0.564 | 0.558 | 0.364 | 0.192 | 0.253 | 0.161 | 0.45 | 0.405 |  | 0.307 | 0.195 | 0.362 | 0.409 | 0.367 | 0.381 | 0.277
Calu-6 |  |  |  |  |  |  |  |  |  | 0.809 | 0.337 | 0.163 | 0.0867 | 0.0627 | 1.04 | 1.01 | 0.908 | 0.537 | 
ChaGo-K-1 | 0.592 | 0.51 | 0.481 | 0.5 | 0.596 | 0.7 | 0.374 | 0.185 | 0.176 | 1.14 |  | 0.819 | 0.256 | 0.203 |  |  |  |  | 0.344
EBC-1 |  |  |  |  |  |  |  |  |  | 0.183 | 0.205 | 0.163 | 0.105 | 0.115 | 0.189 | 0.187 | 0.178 | 0.249 | 
EKVX | 0.244 | 0.214 | 0.211 | 0.218 | 0.226 | 0.65 | 0.277 | 0.176 | 0.107 | 0.666 | 0.429 | 0.329 | 0.253 | 0.146 |  | 0.184 | 0.15 | 0.147 | 0.385
EMC-BAC-2 | 0.551 | 0.566 | 0.352 | 0.533 | 0.61 | 0.844 | 0.24 | 0.216 | 0.211 | 0.452 | 0.215 | 0.132 | 0.177 | 0.137 | 0.968 | 0.975 | 0.858 | 0.907 | 0.33
EPLC-272H | 0.272 | 0.324 |  | 0.307 | 0.263 | 0.206 | 0.0679 | 0.0575 | 0.075 | 0.864 | 0.559 | 0.459 | 0.155 | 0.124 | 0.97 | 0.879 | 0.358 | 0.339 | 0.0928
H3255 | 0.333 | 0.295 | 0.357 | 0.336 | 0.335 | 0.771 | 0.44 | 0.266 | 0.212 | 0.591 | 0.495 | 0.25 | 0.174 | 0.0875 | 0.269 | 0.264 | 0.255 | 0.257 | 0.513
HARA | 0.56 | 0.523 | 0.29 | 0.468 | 0.553 | 0.697 | 0.297 | 0.0959 | 0.0973 | 0.756 | 0.558 | 0.158 | 0.147 |  | 0.922 | 0.892 | 0.657 | 0.568 | 
HCC-15 | 0.54 | 0.468 | 0.323 | 0.491 | 0.57 | 0.303 | 0.219 | 0.169 | 0.165 | 0.795 |  | 0.527 | 0.307 | 0.267 | 0.967 | 0.898 | 0.533 | 0.314 | 
HCC-44 | 0.181 | 0.205 | 0.186 | 0.159 | 0.261 | 0.416 | 0.161 | 0.187 | 0.137 | 0.531 | 0.508 | 0.197 | 0.0883 | 0.0867 | 1.05 | 0.974 | 0.609 | 0.311 | 0.169
HCC-78 | 0.792 | 0.689 | 0.614 | 0.763 | 0.738 |  |  |  |  | 0.358 | 0.236 | 0.244 | 0.261 | 0.239 | 0.768 | 1.2 | 0.265 |  | 

— the supplement of paper PMC10307832
